The target in series [1] is S-phase kinase-associated protein 2/Cyclin-dependent kinases regulatory subunit 1/S-phase kinase-associated protein 1 (Homo sapiens, UniProt Q13309). Nature of the series: Inhibition of GST-tagged Skp2/Skp1 (unknown origin)/His6-tagged Cks1 (unknown origin) interaction preincubated with Skp2/Skp1 for 10 mins followed by Cks1 addition measured after 20 mins by HTRF assay. It counts as protein assay. For orientation: TR-FRET usually uses a lanthanide donor and a delayed reading to cut background.
Sequence of S-phase kinase-associated protein 2/Cyclin-dependent kinases regulatory subunit 1/S-phase kinase-associated protein 1 (P61024 whole entry): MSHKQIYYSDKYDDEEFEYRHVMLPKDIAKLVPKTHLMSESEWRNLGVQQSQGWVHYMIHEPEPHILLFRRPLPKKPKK
Sequence of S-phase kinase-associated protein 2/Cyclin-dependent kinases regulatory subunit 1/S-phase kinase-associated protein 1 (Q13309 whole entry): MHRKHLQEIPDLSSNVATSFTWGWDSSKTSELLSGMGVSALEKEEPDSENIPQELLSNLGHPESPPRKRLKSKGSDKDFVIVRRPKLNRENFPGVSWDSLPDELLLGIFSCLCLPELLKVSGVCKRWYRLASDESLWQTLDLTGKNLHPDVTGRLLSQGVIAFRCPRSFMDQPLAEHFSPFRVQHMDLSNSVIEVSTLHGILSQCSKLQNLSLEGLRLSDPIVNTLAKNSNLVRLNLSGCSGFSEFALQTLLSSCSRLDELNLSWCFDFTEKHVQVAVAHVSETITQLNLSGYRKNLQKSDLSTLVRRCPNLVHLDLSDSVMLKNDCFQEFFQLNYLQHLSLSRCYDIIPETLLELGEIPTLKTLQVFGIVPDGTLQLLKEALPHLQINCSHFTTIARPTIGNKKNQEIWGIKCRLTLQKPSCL
Sequence of S-phase kinase-associated protein 2/Cyclin-dependent kinases regulatory subunit 1/S-phase kinase-associated protein 1 (P63208 whole entry, further chain): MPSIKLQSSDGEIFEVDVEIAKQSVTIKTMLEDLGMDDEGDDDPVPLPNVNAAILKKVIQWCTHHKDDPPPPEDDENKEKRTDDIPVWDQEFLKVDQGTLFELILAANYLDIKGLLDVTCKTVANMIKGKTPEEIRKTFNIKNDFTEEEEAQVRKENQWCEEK

Series [2] deals with MGC-803. Briefly: Antitumor activity against human MGC-803 cells assessed as cell growth inhibition incubated for 72 hrs by MTT assay. Type of series: functional, cell-based. The conditions noted are these: MGC-803, 72 h.
Series [3] concerns the target S-phase kinase-associated protein 2 (Homo sapiens, UniProt Q13309). Briefly: Inhibition of Skp2 in human PC-3 cells treated with shRNA 5'-GGACCTATCGAACTCAGTTAT-3' incubated upto 48 hrs by Western blot analysis (reference value: 4.8 +/- 0.5 microM). It counts as cell-based.
The subject of series [4] is MGC-803. Briefly: Downregulation of Skp2 level in human MGC-803 cells incubated for 48 hrs by Western blot analysis. Type of series: functional, cell-based. The conditions noted are these: dose <= 10.0 µM.
For series [5], the system named is MGC-803. Briefly: Inhibition of colony formation in human MGC-803 cells at 0.5 to 2 uM incubated for 10 days by crystal violet staining based microscopy. It counts as functional, cell-based. As to conditions: dose 0.5-2 µM, time 10.0 day.
The test system of series [6] is MGC-803. Nature of the series: Inhibition of cell migration in human MGC-803 cells incubated for 48 hrs by wound healing assay. The conditions noted are these: dose <= 2.0 µM. Type of series: functional, cell-based.
Series [7] concerns PC-3. Briefly: Induction of cell cycle arrest in human PC-3 cells assessed as accumulation of cells at S phase at 2.5 uM incubated for 48 hrs by flow cytometry (reference value: 22.44 %). It counts as functional. For orientation: Flow cytometry measures light scatter and fluorescence of single cells or particles in a stream.
Series [8] concerns PC-3. Nature of the series: Induction of cell cycle arrest in human PC-3 cells assessed as accumulation of cells at S phase at 5 uM incubated for 48 hrs by flow cytometry (reference value: 22.44 %). It counts as functional.
For series [9], the system named is PC-3. Briefly: Induction of cell cycle arrest in human PC-3 cells assessed as accumulation of cells at G2 phase at 10 uM incubated for 48 hrs by flow cytometry (reference value: 22.59 %). It counts as functional.
Series [10] concerns PC-3. Nature of the series: Induction of cell cycle arrest in human PC-3 cells assessed as accumulation of cells at G1 phase at 10 uM incubated for 36 hrs by flow cytometry (reference value: 56.81 %). It counts as functional.
Series [11] has as its system PC-3. Nature of the series: Induction of cell cycle arrest in human PC-3 cells assessed as accumulation of cells at G2 phase at 10 uM incubated for 36 hrs by flow cytometry (reference value: 19.34 %). It counts as functional.
The test system of series [12] is MGC-803. Nature of the series: Induction of cell cycle arrest in human MGC-803 cells assessed as accumulation of cells at S phase at 10 uM incubated for 12 hrs by flow cytometry (reference value: 20.41 %). Type of series: functional.
Series [13] relates to MGC-803. Briefly: Induction of cell cycle arrest in human MGC-803 cells assessed as accumulation of cells at G2 phase at 10 uM incubated for 12 hrs by flow cytometry (reference value: 20.64 %). Type of series: functional.
The test system of series [14] is MGC-803. Briefly: Induction of cell cycle arrest in human MGC-803 cells assessed as accumulation of cells at G1 phase at 10 uM incubated for 48 hrs by flow cytometry (reference value: 57.09 %). It counts as functional.
The subject of series [15] is PC-3. Briefly: Induction of apoptosis in human PC-3 cells assessed as nuclear fragmentation incubated for 48 hrs. As to conditions: dose <= 10.0 µM. Type of series: functional, cell-based.
The subject of series [16] is MGC-803. Nature of the series: Induction of apoptosis in human MGC-803 cells assessed as viable cells at 2.5 uM incubated for 48 hrs by annexin V-FITC/PI staining based flow cytometry (reference value: 98 %). It counts as functional. As to conditions: read-out: Activity.
Series [17] relates to PC-3. Briefly: Antitumor activity against human PC-3 cells xenografted in NOD-SCID mouse model assessed as downregulation of Skp2 expression at 10 to 50 mg/kg, IG administered once every 2 days for 21 days by Western blot analysis. As to conditions: dose 10-50 mg/kg, time 21.0 day. It counts as functional, organism-based.
Series [18] relates to MGC-803. Briefly: Antitumor activity against human MGC-803 cells xenografted in NOD-SCID mouse model assessed as tumor growth inhibition at 10 to 50 mg/kg, IG administered once every 2 days for 21 days. It counts as functional, organism-based. As to conditions: dose 10-50 mg/kg, time 21.0 day. Background: A xenograft is tissue or cells of one species grown in another, often human tumour cells in immunodeficient mice.

Series [19] deals with MGC-803. Briefly: Antitumor activity against human MGC-803 cells xenografted in NOD-SCID mouse model assessed as downregulation of Skp2 expression at 10 to 50 mg/kg, IG administered once every 2 days for 21 days by Western blot analysis. Type of series: functional, organism-based. The conditions noted are these: dose 10-50 mg/kg, time 21.0 day.
Series [20] has as its system MGC-803. Briefly: Antitumor activity against human MGC-803 cells xenografted in NOD-SCID mouse model assessed as p21 accumulation at 10 to 50 mg/kg, IG administered once every 2 days for 21 days by Western blot analysis. It counts as functional, organism-based. As to conditions: dose 10-50 mg/kg, time 21.0 day.
Series [21] can be described thus: Toxicity in mouse assessed as decrease in platelet level at 10 to 50 mg/kg. Type of series: organism-based. The conditions noted are these: dose 10-50 mg/kg.
The nature of series [22]: Metabolic stability in rat liver microsome assessed as half life at 20 umol/L preincubated for 5 mins followed by NADPH addition measured upto 60 mins by LC-MS/MS analysis. As to conditions: liver microsomes, dose 20 µmol/L, time < 65 min. Type of series: ADME.
The nature of series [23]: Biodistribution in tumor of NOD-SCID mouse model xenografted with human PC-3 cells at 25 mg/kg, IG measured for 48 hrs by LC-MS/MS analysis. It counts as ADME, organism-based, Neoplasm. The conditions noted are these: in vivo, po.
Series [24] in a line: MRTlast in tumor of NOD-SCID mouse model xenografted with human PC-3 cells at 25 mg/kg, IG measured upto 48 hrs by LC-MS/MS analysis. Type of series: ADME, organism-based, Neoplasm. The conditions noted are these: po.

The source made the active and inactive calls. The calls are words filed in the database; no cut-off is given here.

The term IC50 denotes the concentration that inhibits the measured activity by half. As usually defined, the half-life is the time in which the quantity being followed falls by half. For orientation: MRT last means a mean duration of stay, worked out from the concentration-time curve.

Sequence of S-phase kinase-associated protein 2 (Q13309 whole entry): as the sequence (Q13309 whole entry) above

`O=C(CCl)NC1CCN(c2cnc(-c3ccccc3)c(-c3ccccc3)n2)CC1`: the IC50 in series [1] was determined as 2800 nM; in the series with MGC-803 [2], 7 µM; in series [3] it was 38.5 µM. The Activity result is “Dose-Dependent Effect” with MGC-803 [4]; 29.96% in the series with PC-3 [7]; 38.7% in the series on PC-3 [8]; 16.41% with PC-3 [9]; 33.46% in the series with PC-3 [10]; 20.75% in the series on PC-3 [11]. Moreover, the Activity in the series with MGC-803 [12] is 31.88%; in the series with MGC-803 [13], 18.63%; in the series on MGC-803 [14], 35.53%; with PC-3 [15], “Dose-Dependent Effect”; in series [21] it was “Toxic”. Moreover, the inhibition entry in the series with MGC-803 [5] was “Active”. For the same molecule, in the series with MGC-803 [6], the inhibition entry was “Dose-Dependent Effect”. Also, in the series on MGC-803 [16], the viability at 2.5 µM is 89.6%. The result with PC-3 [17], in the series on MGC-803 [19] and in the series with MGC-803 [20] was Active. The TGI entry with MGC-803 [18] was “Active”. Besides, the half-life at 20 µM in [22] worked out at 16.3 min. For the same molecule, in [23], the Drug uptake result is listed as “Active”. For the same molecule, the mean residence time MRT last at 48 h in series [24] amounted to 9.9 h.
